Source: patent US20230014445A1, “ALLOSTERIC CHROMENONE INHIBITORS OF PHOSPHOINOSITIDE 3-KINASE (PI3K) FOR THE TREATMENT OF DISEASE” (Petra Pharma Corporation, priority 2021, published 2023)
pIC50: −log10 of the molar value. Where two headings read alike, the source gives them in different places.

Key:
[1] = molecular target: PI3K-α (PIK3CA) in MDA-MB-453 cells (Homo sapiens, UniProt P42336); assay: PI3K-Alpha Kinase (PIK3CA) activity in vitro cell based assay (AlphaLisa SureFire)
Experimental: PI3K-Alpha Kinase (PIK3CA) Activity In Vitro Cell Based Assay and Determining IC50 Values for Inhibitors
The MDA-MB-453 (ATCC-HTB-131) cell line was obtained from the American Type Culture Collection (Manassas, Va.). Cells were maintained in Dulbecco's Modified Eagle Media (DMVEM, Gibco 11965-092) supplemented with 10% Fetal Bovine Serum, heat inactivated (FBS HI, Gibco 10082-147), 1× non-essential amino acids (NEAA, Gibco 11140-050), and 1 mM sodium pyruvate (Gibco 11360-070). Cultures were maintained in a humidified incubator at 37° C. under […].
For compound testing in 0% FBS, MDA-MB-453 cells were seeded at a density of 1.5×10^4 cells per well in white 384-well plates in 20 μl of Minimum Essential Media (MEM) assay media with 1×NEAA, 1 mM sodium pyruvate, and 1 μg/mL human insulin (Sigma I9278). Compounds dissolved in 10 mM stock solutions in DMSO were serially diluted 1:3 in DMSO to generate a 10-point dilution series and plated using an acoustic liquid handler system (Echo 550 Series Liquid Handler, Labcyte). A 5× intermediate compound dilution plate in MEM with 1×NEAA and 1 mM sodium pyruvate (150 μM starting compound concentration in 1.5% DMSO) was then prepared. Five μl of the intermediate serially diluted compounds were added to the cell plate to final concentrations ranging from […] in 0.3% DMSO. 0.3% DMSO alone was used to establish the maximum (MAX) signal and GDC-0032 at a final concentration of 1 μM was used as a reference compound for the minimum (MIN) signal. After 3 hours treatment, the medium was removed, and the cells lysed in 10 μL of 1× SureFire Lysis buffer with shaking for 10 minutes at room temperature. The Acceptor Mix (Reaction Buffer 1+Reaction Buffer 2+Activation Buffer+SureFire Ultra Acceptor Beads) was prepared by diluting Activation buffer 25-fold in combined Reaction Buffer 1 and Reaction Buffer 2. The Acceptor beads were diluted 50-fold in the combined Reaction Buffers. Five μL of Acceptor Mix was added to each well, the plate was sealed and covered with foil and incubated for 1 hour at room temperature. The Donor Mix (dilution buffer+SureFire Ultra Donor Beads) was prepared by diluting Donor Beads 50-fold in dilution buffer. Five μL of the Donor Mix was added to each well and the plate sealed and covered with foil and incubated for 1 hour at room temperature in the dark. The plates were read on a Neo2 plate reader instrument from Biotek using standard AlphaLisa settings.
Compounds were tested in duplicate and the average % inhibition at each compound concentration was used to generate a single dose response curve. The data were processed using the Genedata-Screener tool. Relative IC50 values were determined using luminescence units by calculating percent inhibition with respect to the in-plate “MIN” (GDC-0032 reference control) and “MAX” (DMSO) controls. The data was analyzed using a 4-parameter nonlinear logistic equation (four-parameter logistic concentration-response curve):
Y=bottom+[(top−bottom)/1+(X/IC50)slope]
where Y=% inhibition, X=concentration of inhibitor, bottom=minimum value of y attained by curve-fit, top=maximum value of y attained by curve-fit and slope=steepness of curve at the IC50.
% Inhibition=[(signal at X−median Min)/(median Max−median Min)]×100
IC50: concentration of compound that reduces a given response (ligand binding, enzyme response) by 50%. Relative IC50: concentration giving half the compound's maximum response.
For IC50 values shown in Table B, “A” means IC50<50 nM; “B” means IC50 ranging between 50 nM and 100 nM; “C” means IC50 ranging between 100 nM and 500 nM; “D” means IC50>500 nM.

[2] = molecular target: T1, human full length PIK3KA H1047R mutant (p110α/p85α complex) (Homo sapiens, UniProt P42336, H1047R); assay: PI3K-Alpha Kinase (PIK3CA) biochemical activity, H1047R mutant (ADP-Glo); conditions: 20 uM ATP
T1 construct: Recombinant, catalytically active human full length PIK3KA Wild-type and H1047R mutant were purchased; 6xHis (N); purchased EMD Millipore Sigma 14-792M
Method in brief: (§1)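 ADP formation, measured by ADP-Glo luminescence after reaction to about 10% ATP conversion at 27° C., gives 10-point 4-parameter IC50 curves normalized to no-enzyme and DMSO controls. Lipid substrate was PIP2diC8 or Soy PI at 50 uM, with 20 uM ATP. WT or H1047R p110α/p85α complex (1-5 nM) was preincubated 1 h with compound.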

[3] = molecular target: T2, human full length PIK3KA Wild-type (p110α/p85α complex) (Homo sapiens, UniProt P42336); assay: PI3K-Alpha Kinase (PIK3CA) biochemical activity, wild-type (ADP-Glo); conditions: 20 uM ATP
T2 construct: Recombinant, catalytically active human full length PIK3KA Wild-type and H1047R mutant were purchased; 6xHis (N); purchased EMD Millipore Sigma 14-602M
Method in brief: as §1

[4] = 0% FBS, 3 hours treatment, read-out: PI3K-α (PIK3CA) in vitro cell based assay IC50
[5] = read-out: PI3K-α (PIK3CA) in vitro cell based assay IC50, 0% FBS, 3 hours treatment

Chain of PI3K-α (PIK3CA) in MDA-MB-453 cells (P42336 whole entry): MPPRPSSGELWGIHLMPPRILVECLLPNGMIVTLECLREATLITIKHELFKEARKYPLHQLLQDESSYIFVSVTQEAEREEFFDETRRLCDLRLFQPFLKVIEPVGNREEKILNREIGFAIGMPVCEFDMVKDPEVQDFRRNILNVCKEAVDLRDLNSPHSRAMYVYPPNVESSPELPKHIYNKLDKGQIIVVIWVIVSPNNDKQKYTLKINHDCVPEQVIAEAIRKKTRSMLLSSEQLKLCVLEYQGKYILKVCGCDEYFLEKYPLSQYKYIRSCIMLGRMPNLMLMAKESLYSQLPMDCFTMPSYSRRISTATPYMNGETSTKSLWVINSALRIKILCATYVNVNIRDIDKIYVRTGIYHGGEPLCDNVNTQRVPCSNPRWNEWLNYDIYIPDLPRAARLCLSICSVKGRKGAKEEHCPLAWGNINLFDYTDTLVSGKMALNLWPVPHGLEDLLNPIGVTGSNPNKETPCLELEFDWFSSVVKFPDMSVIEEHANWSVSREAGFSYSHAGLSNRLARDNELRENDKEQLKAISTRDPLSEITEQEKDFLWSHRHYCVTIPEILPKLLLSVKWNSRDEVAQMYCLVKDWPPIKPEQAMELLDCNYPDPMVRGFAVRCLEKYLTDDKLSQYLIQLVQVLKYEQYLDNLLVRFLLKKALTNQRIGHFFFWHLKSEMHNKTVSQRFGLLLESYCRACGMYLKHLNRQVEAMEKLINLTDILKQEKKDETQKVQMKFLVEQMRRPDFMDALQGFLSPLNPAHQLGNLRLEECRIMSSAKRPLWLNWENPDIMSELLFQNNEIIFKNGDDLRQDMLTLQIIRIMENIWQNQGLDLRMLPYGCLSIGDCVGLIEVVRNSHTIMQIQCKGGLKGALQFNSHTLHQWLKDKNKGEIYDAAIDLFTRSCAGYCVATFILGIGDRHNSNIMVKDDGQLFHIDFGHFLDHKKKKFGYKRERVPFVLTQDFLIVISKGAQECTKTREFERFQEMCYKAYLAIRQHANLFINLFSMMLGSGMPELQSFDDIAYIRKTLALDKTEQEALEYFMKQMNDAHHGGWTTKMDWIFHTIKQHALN
Chain of PI3K-α (PIK3CA) in MDA-MB-453 cells (P27986 2-724, further chain): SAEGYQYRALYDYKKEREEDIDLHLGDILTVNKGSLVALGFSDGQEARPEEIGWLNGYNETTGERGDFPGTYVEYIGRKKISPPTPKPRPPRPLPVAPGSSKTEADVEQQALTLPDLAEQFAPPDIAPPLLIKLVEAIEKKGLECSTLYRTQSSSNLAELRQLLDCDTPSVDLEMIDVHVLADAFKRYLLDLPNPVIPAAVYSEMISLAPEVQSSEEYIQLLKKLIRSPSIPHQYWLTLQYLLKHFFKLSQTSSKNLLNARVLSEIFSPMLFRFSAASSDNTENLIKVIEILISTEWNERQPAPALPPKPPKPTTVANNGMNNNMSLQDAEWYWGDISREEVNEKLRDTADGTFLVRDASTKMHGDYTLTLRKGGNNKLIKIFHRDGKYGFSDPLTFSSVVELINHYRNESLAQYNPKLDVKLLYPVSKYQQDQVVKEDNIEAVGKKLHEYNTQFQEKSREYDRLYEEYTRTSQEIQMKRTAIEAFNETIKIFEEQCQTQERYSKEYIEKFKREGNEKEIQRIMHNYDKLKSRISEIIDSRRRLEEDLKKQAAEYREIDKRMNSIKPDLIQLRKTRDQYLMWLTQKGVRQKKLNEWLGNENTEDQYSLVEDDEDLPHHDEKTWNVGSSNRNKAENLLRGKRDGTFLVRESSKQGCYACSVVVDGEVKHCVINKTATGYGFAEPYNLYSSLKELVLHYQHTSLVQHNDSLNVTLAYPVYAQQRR
T1 sequence (P42336 whole entry H1047R): as the sequence (P42336 whole entry) above, with H1047R counted along it
T1 sequence (P27986 whole entry partner): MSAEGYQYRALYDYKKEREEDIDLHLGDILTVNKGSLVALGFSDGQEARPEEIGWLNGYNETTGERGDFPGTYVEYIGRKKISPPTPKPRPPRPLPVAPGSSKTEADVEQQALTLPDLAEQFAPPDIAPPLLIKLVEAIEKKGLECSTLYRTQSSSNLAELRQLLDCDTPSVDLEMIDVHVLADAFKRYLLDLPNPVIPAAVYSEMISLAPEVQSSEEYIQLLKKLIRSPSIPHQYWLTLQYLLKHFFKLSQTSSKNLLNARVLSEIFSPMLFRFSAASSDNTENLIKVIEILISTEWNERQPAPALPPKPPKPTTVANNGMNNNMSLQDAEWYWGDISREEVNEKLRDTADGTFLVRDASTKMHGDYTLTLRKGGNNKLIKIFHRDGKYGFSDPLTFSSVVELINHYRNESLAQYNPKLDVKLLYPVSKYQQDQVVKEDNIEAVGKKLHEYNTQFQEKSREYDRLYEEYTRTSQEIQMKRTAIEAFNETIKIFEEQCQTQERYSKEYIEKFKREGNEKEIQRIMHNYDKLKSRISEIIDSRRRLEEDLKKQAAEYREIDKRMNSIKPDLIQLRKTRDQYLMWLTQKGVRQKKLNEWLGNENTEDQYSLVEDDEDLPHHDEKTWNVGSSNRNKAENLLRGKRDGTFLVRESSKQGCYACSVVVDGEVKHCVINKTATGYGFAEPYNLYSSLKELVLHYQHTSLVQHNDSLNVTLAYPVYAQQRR

Cc1cc(C(C)Nc2ccc(Cl)nc2C(=O)O)c2oc(-c3cncc(F)c3)c(C)c(=O)c2c1 (single isomer, unassigned; isomer 1) [Example 138, 6-Chloro-3-[1-[2-(5-fluoro-3-pyridyl)-3,6-dimethyl-4-oxo-chromen-8-yl]ethylamino]pyridine-2-carboxylic acid, Isomer 1]
pIC50 [1, 4]: > 7.30

Cc1cc(C(C)Nc2ccccc2C(=O)O)c2oc(-c3ccc(C(F)(F)F)nc3)cc(=O)c2c1 (single isomer, unassigned; isomer 1) [Example 37, 2-[1-[6-Methyl-4-oxo-2-[6-(trifluoromethyl)-3-pyridyl]chromen-8-yl]ethylamino]benzoic acid, Isomer 1]
pIC50 [1, 4]: < 6.30 | pIC50 ([2]; Soy PI lipid substrate): < 5.00 | pIC50 ([3]; Soy PI lipid substrate): < 5.00

Cc1cc(C(C)Nc2ccccc2C(=O)O)c2oc(-c3cnn(C)c3)c(C)c(=O)c2c1 (single isomer, unassigned; isomer 1) [Example 136, 2-[1-[3,6-Dimethyl-2-(1-methylpyrazol-4-yl)-4-oxo-chromen-8-yl]ethylamino]benzoic acid, Isomer 1]
pIC50 [1, 4]: > 7.30

COc1ccc(-n2cc(-c3cc(=O)c4cc(C)cc(C(C)Nc5ccccc5C(=O)O)c4o3)nn2)cc1OC (single isomer, unassigned) [Example 133, 2-[1-[2-[1-(3,4-Dimethoxyphenyl)triazol-4-yl]-6-methyl-4-oxo-chromen-8-yl]ethylamino]benzoic acid, Isomer 2,2,2,2-trifluoroacetic acid]
pIC50 [1, 5]: 6.30 to 7.00

Cc1cc(C(C)Nc2cccnc2C(=O)O)c2oc(-c3cccc(C(F)F)n3)c(C)c(=O)c2c1 (single isomer, unassigned; isomer 1) [Example 139, 3-[1-[2-[6-(Difluoromethyl)-2-pyridyl]-3,6-dimethyl-4-oxo-chromen-8-yl]ethylamino]pyridine-2-carboxylic acid; 2,2,2-trifluoroacetic acid, Isomer 1]
pIC50 [1, 5]: 6.30 to 7.00

Cc1cc(C(C)Nc2ccc(Cl)nc2C(=O)O)c2oc(-c3cccc(C(F)F)n3)c(C)c(=O)c2c1 (single isomer, unassigned; isomer 1) [Example 141, 6-Chloro-3-[1-[2-[6-(difluoromethyl)-2-pyridyl]-3,6-dimethyl-4-oxo-chromen-8-yl]ethylamino]pyridine-2-carboxylic acid, Isomer 1]
pIC50 [1, 4]: > 7.30

Cc1cc(C(C)Nc2cccc(F)c2C(=O)O)c2oc(-c3ccccn3)c(C)c(=O)c2c1 (single isomer, unassigned; isomer 1) [Example 140, 2-[1-[3,6-Dimethyl-4-oxo-2-(2-pyridyl)chromen-8-yl]ethylamino]-6-fluoro-benzoic acid, Isomer 1]
pIC50 [1, 4]: 7.00 to 7.30

COc1ccc(-n2nncc2-c2cc(=O)c3cc(C)cc(C(C)Nc4ccccc4C(=O)O)c3o2)cc1OC (single isomer, unassigned) [Example 134, 2-[1-[2-[3-(3,4-Dimethoxyphenyl)triazol-4-yl]-6-methyl-4-oxo-chromen-8-yl]ethylamino]benzoic acid, Isomer 2,2,2,2-trifluoroacetic acid]
pIC50 [1, 5]: < 6.30

Cc1cc(C(C)Nc2ccccc2C(=O)O)c2oc(-c3ccccn3)cc(=O)c2c1 (single isomer, unassigned; isomer 2) [Example 18, 2-[1-[6-Methyl-4-oxo-2-(2-pyridyl)chromen-8-yl]ethylamino]benzoic acid, Isomer 2]
pIC50 ([2]; PIP2diC8 lipid substrate): < 5.00 | pIC50 ([3]; PIP2diC8 lipid substrate): < 5.00

Cc1cc(C(C)Nc2ccccc2C(=O)O)c2oc(-c3cn(-c4ccc(C#N)cc4)cn3)cc(=O)c2c1 (single isomer, unassigned) [Example 103, 2-[1-[2-[1-(4-Cyanophenyl)imidazol-4-yl]-6-methyl-4-oxo-chromen-8-yl]ethylamino]benzoic acid, Isomer 2,2,2,2-trifluoroacetic acid]
pIC50 ([2]; Soy PI lipid substrate): > 6.30 | pIC50 ([3]; Soy PI lipid substrate): 5.00 to 5.30

Cc1cc(C(C)Nc2ccccc2C(=O)O)c2oc(-c3cccc(C(F)F)n3)c(C)c(=O)c2c1 (single isomer, unassigned) [Example 77, 2-[1-[2-[6-(Difluoromethyl)-2-pyridyl]-3,6-dimethyl-4-oxo-chromen-8-yl]ethylamino]benzoic acid, Isomer 1,2,2,2-trifluoroacetic acid]
pIC50 ([2]; Soy PI lipid substrate): > 6.30 | pIC50 ([3]; Soy PI lipid substrate): 6.00 to 6.30

Cc1cc(C(C)Nc2ccccc2C(=O)O)c2oc(-c3cnccn3)cc(=O)c2c1 (single isomer, unassigned; isomer 1) [Example 15, 2-[1-(6-Methyl-4-oxo-2-pyrazin-2-yl-chromen-8-yl)ethylamino]benzoic acid, Isomer 1]
pIC50 ([2]; PIP2diC8 lipid substrate): > 6.30 | pIC50 ([3]; PIP2diC8 lipid substrate): 5.30 to 6.00

CC(Nc1ccc(Cl)nc1C(=O)O)c1cc(C(F)(F)F)cc2c(=O)cc(-c3cnn(-c4ccc(C#N)cc4)c3)oc12 (single isomer, unassigned; isomer 1) [Example 96, 6-Chloro-3-[1-[2-[1-(4-cyanophenyl)pyrazol-4-yl]-4-oxo-6-(trifluoromethyl)chromen-8-yl]ethylamino]pyridine-2-carboxylic acid, Isomer 1]
pIC50 ([2]; Soy PI lipid substrate): > 6.30 | pIC50 ([3]; Soy PI lipid substrate): 5.30 to 6.00

COc1ncc(-c2cc(=O)c3cc(C)cc(C(C)Nc4ccccc4C(=O)O)c3o2)cn1 (single isomer, unassigned) [Example 4, 2-[1-[2-(2-Methoxypyrimidin-5-yl)-6-methyl-4-oxo-chromen-8-yl]ethylamino]benzoic acid]
pIC50 ([2]; PIP2diC8 lipid substrate): > 6.30 | pIC50 ([3]; PIP2diC8 lipid substrate): > 6.30

COc1ccnc(-c2cc(=O)c3cc(C)cc(C(C)Nc4ccccc4C(=O)O)c3o2)c1 (single isomer, unassigned) [Example 43, 2-[1-[2-(4-Methoxy-2-pyridyl)-6-methyl-4-oxo-chromen-8-yl]ethylamino]benzoic acid, Isomer 2,2,2,2-trifluoroacetic acid]
pIC50 ([2]; Soy PI lipid substrate): 6.00 to 6.30 | pIC50 ([3]; Soy PI lipid substrate): 5.00 to 5.30

Cc1cc(C(C)Nc2ccccc2C(=O)O)c2oc(-c3cnc(C)nc3)cc(=O)c2c1 (single isomer, unassigned; isomer 1) [Example 32, 2-[1-[6-Methyl-2-(2-methylpyrimidin-5-yl)-4-oxo-chromen-8-yl]ethylamino]benzoic acid, Isomer 1]
pIC50 ([2]; PIP2diC8 lipid substrate): > 6.30 | pIC50 ([3]; PIP2diC8 lipid substrate): 5.00 to 5.30

Cc1c(-c2ccccn2)oc2c(C(C)Nc3ccccc3C(=O)O)cc(F)cc2c1=O (single isomer, unassigned) [Example 68, 2-[1-[6-Fluoro-3-methyl-4-oxo-2-(2-pyridyl)chromen-8-yl]ethylamino]benzoic acid, Isomer 1,2,2,2-trifluoroacetic acid]
pIC50 ([2]; Soy PI lipid substrate): > 6.30 | pIC50 ([3]; Soy PI lipid substrate): 5.00 to 5.30

Cc1cc(C(C)Nc2ccccc2C(=O)O)c2oc(-c3cccc(C(F)F)n3)cc(=O)c2c1 (single isomer, unassigned; isomer 2) [Example 71, 2-[1-[2-[6-(Difluoromethyl)-2-pyridyl]-6-methyl-4-oxo-chromen-8-yl]ethylamino]benzoic acid, Isomer 2]
pIC50 ([2]; Soy PI lipid substrate): > 6.30 | pIC50 ([3]; Soy PI lipid substrate): 5.00 to 5.30
